The values that follow are results of earlier work, collected in patent US6395296B1, “Soluble double metal salt of group IA and IIA of hydroxycitric acid, process of preparing the same and its use in beverages and other food products without effecting their flavor and properties” (priority 1997, dated 2002).

Molecules are shown by their SMILES.

Data set [1] relates to conversion of excess carbohydrates to fat. Particulars: in animals; established by several scientists including at Hoffman-La Roche.
For data set [2], the system named is ATP dependent citrate-lyase. The following applies: key enzyme in diverting carbohydrate to fatty acids and cholesterol synthesis; Sullivan et al., Sergio.

With `O=C(O)CC(O)(C(=O)O)C(O)C(=O)O` (single isomer, unassigned; (-)) [HCA, (−) Hydroxycitric acid], the “conversion of excess carbohydrates to fat” value in data set [1] is “prevents the conversion of excess carbohydrates to fat”. Further, the “inhibition of ATP dependent citrate-lyase” value in data set [2] was “inhibit”.
